For data set [1], the system named is rgRSV224 virus. The data set is described as follows: microbe, parasite or virus in culture. Type of data set: cell-based, respiratory syncytial virus (RSV). The note with it: for EC50: read-out: WT activity EC50; for SI CC50/EC50: selectivity index, CC50 (HeLa cytotoxicity) over EC50 (rgRSV224). As for the experimental part: Black 96-well clear-bottom microtiter plates (Corning, Amsterdam, The Netherlands) were filled in duplicate using a customized robot system with serial 4-fold dilutions of compound in a final volume of 50 μl culture medium [RPMI medium without phenol red, 10% FBS, 0.04% gentamycin (50 mg/mL) and 0.5% DMSO]. Then, 100 μl of a HeLa cell suspension (5×10^4 cells/mL) in culture medium was added to each well followed by the addition of 50 μl rgRSV224 (MOI=0.02) virus in culture medium using a multidrop dispenser (Thermo Scientific, Erembodegem, Belgium). rgRSV224 virus is an engineered virus that includes an additional GFP gene (Hallak et al, 2000) and was in-licensed from the NIH (Bethesda, Md., USA). Medium, virus- and mock-infected controls were included in each test. Cells were incubated at 37° C. in a 5% CO2 atmosphere. Three days post-virus exposure, viral replication was quantified by measuring GFP expression in the cells by a MSM laser microscope (Tibotec, Beerse, Belgium). […] In parallel, compounds were incubated for three days in a set of white 96-well microtitier plates (Corning) and the cytotoxicity of compounds in HeLa cells was determined by measuring the ATP content of the cells using the ATPlite kit (PerkinElmer, Zaventem, Belgium) according to the manufacturer's instructions.

The subject of data set [2] is HeLa cells. The data set is described as follows: Cytotoxicity in HeLa cells by ATP content (ATPlite kit). It counts as cell-based. The procedure: Black 96-well clear-bottom microtiter plates (Corning, Amsterdam, The Netherlands) were filled in duplicate using a customized robot system with serial 4-fold dilutions of compound in a final volume of 50 μl culture medium [RPMI medium without phenol red, 10% FBS, 0.04% gentamycin (50 mg/mL) and 0.5% DMSO]. Then, 100 μl of a HeLa cell suspension (5×10^4 cells/mL) in culture medium was added to each well followed by the addition of 50 μl rgRSV224 (MOI=0.02) virus in culture medium using a multidrop dispenser (Thermo Scientific, Erembodegem, Belgium). rgRSV224 virus is an engineered virus that includes an additional GFP gene (Hallak et al, 2000) and was in-licensed from the NIH (Bethesda, Md., USA). Medium, virus- and mock-infected controls were included in each test. Cells were incubated at 37° C. in a 5% CO2 atmosphere. Three days post-virus exposure, viral replication was quantified by measuring GFP expression in the cells by a MSM laser microscope (Tibotec, Beerse, Belgium). The EC50 was defined as the 50% inhibitory concentration for GFP expression. In parallel, compounds were incubated for three days in a set of white 96-well microtitier plates (Corning) and the cytotoxicity of compounds in HeLa cells was determined by measuring the ATP content of the cells using the ATPlite kit (PerkinElmer, Zaventem, Belgium) according to the manufacturer's instructions. The CC50 was defined as the 50% concentration for cytotoxicity.

Setting [3] is: Table 1, rgRSV224 in HeLa cells, GFP expression three days post-virus exposure.
The mark [4] stands for this setting: Table 1, HeLa cells, three days, ATP content, read-out: Tox CC50.
[5] abbreviates: human respiratory syncytial virus, HeLa, 72 h.
Where [6] appears, read: Table 2, rgRSV224 in HeLa cells, GFP expression three days post-virus exposure.

Where two headings read alike, the source gives them in different places.

Usually EC50 stands for the concentration needed to bring the measured effect to its halfway point. The term CC50 denotes the concentration giving 50% cytotoxicity. For the compound `O=c1n(Cc2nc3cc(Br)ccc3n2CCCCF)c2cnccc2n1C1CC1` [P1], the EC50 in data set [1] (setting [3]) was 0.033 nM. In data set [2] (setting [4]), the CC50 was greater than 9840 nM. Turning to `CS(=O)(=O)CCCn1c(Cn2c(=O)n(C3CC3)c3ccc(F)cc32)nc2cc(Br)ccc21` [P3], in data set [1] (setting [3]), the EC50 came out at 0.47 nM. In data set [2], the CC50 is greater than 9840 nM. As for `CS(=O)(=O)NCCCCn1c(Cn2c(=O)n(C3CC3)c3ccncc32)nc2cc(Br)ccc21` [P5], in data set [1] (setting [3]), the EC50 was less than 0.15 nM. Also, the CC50 in data set [2] is greater than 101000 nM. For `CS(=O)(=O)CCCn1c(Cn2c(=O)n(C3CC3)c3ccncc32)nc2cc(Cl)ccc21` [P6] the same measures were less than 0.15 nM and greater than 9840 nM. Take `CS(=O)(=O)CCCn1c(Cn2c(=O)n(C3CC3)c3ccccc32)nc2cc(Br)ccc21` [P7]: the EC50 in data set [1] (setting [3]) was less than 0.15 nM. Also, in data set [2], the CC50 was greater than 9840 nM. In the case of `O=c1n(Cc2nc3cc(Br)ccc3n2CCCCCl)c2cnccc2n1C1CC1` [P8], the EC50 in data set [1] (setting [3]) was less than 0.205 nM. For the same compound, the CC50 in data set [2] (setting [4]) is greater than 9840 nM.

Regarding `CS(=O)(=O)NCCCn1c(Cn2c(=O)n(C3CC3)c3ccncc32)nc2cc(Br)ccc21` [P9], the EC50 in data set [1] (setting [3]) was 0.21 nM. In data set [2], this compound came in with a CC50 greater than 101000 nM. For `CS(=O)(=O)CCCn1c(Cn2c(=O)n(C3CC3)c3ccc(F)cc32)nc2cc(Cl)ccc21` [P10] the same measures were 0.23 nM and greater than 9840 nM. For `O=c1n(Cc2nc3cc(Cl)ccc3n2CCCCO)c2cc(F)ccc2n1C1CC1` [P11] the same measures were 0.253 nM and greater than 9840 nM. As to `O=c1n(Cc2nc3cc(Cl)ccc3n2CCCCO)c2ccccc2n1C1CC1` [P12], the EC50 in data set [1] (setting [3]) was 0.307 nM. In addition, the CC50 in data set [2] was greater than 9840 nM.

For the compound `O=c1n(Cc2nc3cc(Cl)ccc3n2CCCCO)c2cnccc2n1C1CC1` [P13], the EC50 in data set [1] (setting [3]) was 0.454 nM. In addition, the CC50 in data set [2] was greater than 9840 nM. For `O=c1n(Cc2nc3cc(Br)ccc3n2CCCCO)c2cnccc2n1C1CC1` [P14] the same measures were 0.523 nM and greater than 98400 nM. Take `CC(C)CCn1c(Cn2c(=O)n(C3CC3)c3ccncc32)nc2cc(Cl)ccc21` [P15]: the EC50 in data set [1] (setting [3]) is less than 0.62 nM. The CC50 in data set [2] was greater than 98400 nM. On the same counts, the results for `O=c1n(Cc2nc3cc(Br)ccc3n2CCCCO)c2cc(F)ccc2n1C1CC1` [P16] are 0.744 nM and greater than 9840 nM. For `CC(C)CCn1c(Cn2c(=O)n(C3CC3)c3ccncc32)nc2cc(Br)ccc21` [P17] the same measures were 0.808 nM and greater than 49200 nM. On to `CC(=O)OCCCCn1c(Cn2c(=O)n(C3CC3)c3ccncc32)nc2cc(Br)ccc21` [P18], for which the EC50 in data set [1] (setting [3]) is 1.07 nM. Moreover, the CC50 in data set [2] (setting [4]) was greater than 101000 nM. Turning to `CC(C)(C)C(=O)OCCCCn1c(Cn2c(=O)n(C3CC3)c3ccccc32)nc2cc(Cl)ccc21` [P19], the EC50 in data set [1] (setting [3]) came out at 2.59 nM. This compound returned a CC50 in data set [2] greater than 9840 nM. In the case of `CC(C)(C)C(=O)OCCCCn1c(Cn2c(=O)n(C3CC3)c3ccc(F)cc32)nc2cc(Cl)ccc21` [P20], in data set [1] (setting [3]), the EC50 came out at 4.09 nM. Besides, the CC50 in data set [2] is greater than 9840 nM. On the same counts, the results for `CN(C)CCCn1c(Cn2c(=O)n(C3CC3)c3ccncc32)nc2cc(Br)ccc21` [P21] are 4.12 nM and greater than 98400 nM. Turning to `CC(=O)OCCCCn1c(Cn2c(=O)n(C3CC3)c3ccc(F)cc32)nc2cc(Br)ccc21` [P22], the EC50 in data set [1] (setting [3]) is less than 0.81 nM. The CC50 in data set [2] (setting [4]) is greater than 9840 nM. On to `O=c1n(Cc2nc3cc(Cl)ccc3n2CCCn2ccnc2)c2cnccc2n1C1CC1` [P51, 3-({5-chloro-1-[3-(1H-imidazol-1-yl)propyl]-1H-benzimidazol-2-yl}methyl)-1-cyclopropyl-1,3-dihydro-2H-imidazo[4,5-c]pyridin-2-one], for which the “SI CC50/EC50” value in data set [1] (Table 2) is on record as greater than 401504. Further, the EC50 in data set [1] (setting [5]) was determined as 0.25 nM. Consider `CC(C)(C)OC(=O)CCCn1c(Cn2c(=O)n(C3CC3)c3ccncc32)nc2cc(Cl)ccc21` [P52], for which the EC50 in data set [1] (setting [6]) worked out at 0.55 nM. Besides, in data set [1] (Table 2), the “SI CC50/EC50” value stood at 70937. On the same counts, the results for `O=c1n(Cc2nc3cc(Cl)ccc3n2CCCC(F)(F)F)c2cc(F)ccc2n1C1CC1` [P58] are 0.49 nM and 104559. For `CN(C(=O)CCCn1c(Cn2c(=O)n(C3CC3)c3ccncc32)nc2cc(Cl)ccc21)S(=O)(=O)C1CC1` [P59, 4-(5-chloro-2-((1-cyclopropyl-2-oxo-1H-imidazo[4,5-c]pyridin-3(2H)-yl)methyl)-1H-benzo[d]imidazol-1-yl)-N-(cyclopropylsulfonyl)-N-methylbutanamide], the “SI CC50/EC50” value in data set [1] (Table 2) is greater than 604770. In data set [1] (setting [5]), the EC50 amounted to 0.17 nM. With `CC(C)(C)OC(=O)Cn1c(=O)n(Cc2nc3cc(Cl)ccc3n2CCCC(F)(F)F)c2cnccc21` [P60], in data set [1] (setting [6]), the EC50 is 1.68 nM. For the same compound, in data set [1] (Table 2), the “SI CC50/EC50” value is reported as greater than 59486. In the case of `O=C(CCn1c(Cn2c(=O)n(C3CC3)c3ccc(F)cc32)nc2cc(Cl)ccc21)N1CCOCC1` [P62], the EC50 in data set [1] (setting [6]) was 1.36 nM. For the same compound, in data set [1] (Table 2), the “SI CC50/EC50” value is greater than 73334. For `O=C(CCCn1c(Cn2c(=O)n(C3CC3)c3ccncc32)nc2cc(Cl)ccc21)N1CCOCC1` [P63] the same measures were 1 nM and greater than 98994. For the compound `O=C(CCn1c(Cn2c(=O)n(C3CC3)c3ccncc32)nc2cc(Cl)ccc21)N1CCOCC1` [P64], the EC50 in data set [1] (setting [6]) worked out at 1.45 nM. Besides, the “SI CC50/EC50” value in data set [1] (Table 2) was greater than 68795.

On to `N#CCCCn1c(Cn2c(=O)n(C3CC3)c3ccccc32)nc2cc(Cl)ccc21` [P70], for which the EC50 in data set [1] (setting [6]) came out at 0.631 nM. The “SI CC50/EC50” value in data set [1] (Table 2) was greater than 159787. Regarding `CN(C)C(=O)Cn1c(=O)n(Cc2nc3cc(Cl)ccc3n2CCCCF)c2cnccc21` [P71], the EC50 in data set [1] (setting [6]) is 2.5 nM. The “SI CC50/EC50” value in data set [1] (Table 2) is listed as greater than 39781.

`N#CCCCn1c(Cn2c(=O)n(C3CC3)c3ccc(F)cc32)nc2cc(Cl)ccc21` [P73]: in data set [1] (setting [6]), the EC50 was 1.58 nM. In data set [1] (Table 2), the “SI CC50/EC50” value was 23633. As to `O=C(CCCn1c(Cn2c(=O)n(C3CC3)c3ccncc32)nc2cc(Br)ccc21)N1CCCCS1(=O)=O` [P74], the EC50 in data set [1] (setting [6]) came to 1.18 nM. In addition, the “SI CC50/EC50” value in data set [1] (Table 2) is reported as greater than 84529. For `O=C(CCCn1c(Cn2c(=O)n(C3CC3)c3ccncc32)nc2cc(Br)ccc21)N1CCCS1(=O)=O` [P75] the same measures were 0.2 nM and greater than 444590. Take `NS(=O)(=O)NC(=O)CCCn1c(Cn2c(=O)n(C3CC3)c3ccncc32)nc2cc(Br)ccc21` [P76, 4-(5-bromo-2-((1-cyclopropyl-2-oxo-1H-imidazo[4,5-c]pyridin-3(2H)-yl)methyl)-1H-benzo[d]imidazol-1-yl)-N-sulfamoylbutanamide]: in data set [1] (Table 2), the “SI CC50/EC50” value is reported as greater than 214887. The EC50 in data set [1] (setting [5]) came to 0.47 nM. For the compound `CCCS(=O)(=O)NC(=O)CCCn1c(Cn2c(=O)n(C3CC3)c3ccncc32)nc2cc(Br)ccc21` [P78], the EC50 in data set [1] (setting [6]) was found to be 1.73 nM. Moreover, the “SI CC50/EC50” value in data set [1] (Table 2) is listed as greater than 57893. On the same counts, the results for `CN(C(=O)CCCn1c(Cn2c(=O)n(C3CC3)c3ccncc32)nc2cc(Br)ccc21)S(C)(=O)=O` [P79] are 0.56 nM and greater than 177178. For `CS(=O)(=O)NC(=O)CCCn1c(Cn2c(=O)n(C3CC3)c3ccncc32)nc2cc(Br)ccc21` [P80] the same measures were 1 nM and greater than 99444. For the compound `CCCCS(=O)(=O)NC(=O)CCCn1c(Cn2c(=O)n(C3CC3)c3ccncc32)nc2cc(Br)ccc21` [P81], the EC50 in data set [1] (setting [6]) came out at 7.25 nM. Besides, in data set [1] (Table 2), the “SI CC50/EC50” value is on record as greater than 13798.

On to `NC(=O)CCCn1c(Cn2c(=O)n(C3CC3)c3ccncc32)nc2cc(Br)ccc21` [P82], for which the EC50 in data set [1] (setting [6]) was 0.58 nM. Further, in data set [1] (Table 2), the “SI CC50/EC50” value is recorded as greater than 85761. On the same counts, the results for `CNC(=O)CCCn1c(Cn2c(=O)n(C3CC3)c3ccncc32)nc2cc(Br)ccc21` [P83] are 0.9 nM and greater than 111709. On the same counts, the results for `CS(=O)(=O)CCCn1c(Cn2c(=O)n(C3CC3)c3ccncc32)nc2ccccc21` [Ref1, reference compound] are 2.5 nM and greater than 4315. Turning to `O=c1n(Cc2nc3ccccc3n2CCCCO)c2cnccc2n1C1CC1` [Ref2, reference compound], in data set [1] (setting [6]), the EC50 was 3.98 nM.
